SMILES strings stand for the structures.

This assay deals with GluA1o-γ8 (GRIA1o-CACNG8 fusion construct) (Homo sapiens (Human), UniProt P42261+Q8WXS5). The experiment in a line: Calcium flux assay (FLIPR), inhibition of TARP γ8 dependent AMPA receptor activity. The class given is cell-based. The note with it: GluA1o-γ8 (GRIA1o-CACNG8 fusion) in HEK293 cells, calcium flux after 15 μM glutamate. An outline of the steps: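 HEK293 cells stably expressing a 1:1 GRIA1o–CACNG8 fusion were loaded with Calcium-5/6 dye plus compound in pH 7.4 HEPES-buffered saline. FLIPR calcium flux after 15 μM glutamate was normalized to untreated and 10 μM CP465022 controls, and a four-parameter logistic fit gave pIC50.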
Chain of GluA1o-γ8 (GRIA1o-CACNG8 fusion construct) (P42261 other isoform, or with tags, fused parts or gaps): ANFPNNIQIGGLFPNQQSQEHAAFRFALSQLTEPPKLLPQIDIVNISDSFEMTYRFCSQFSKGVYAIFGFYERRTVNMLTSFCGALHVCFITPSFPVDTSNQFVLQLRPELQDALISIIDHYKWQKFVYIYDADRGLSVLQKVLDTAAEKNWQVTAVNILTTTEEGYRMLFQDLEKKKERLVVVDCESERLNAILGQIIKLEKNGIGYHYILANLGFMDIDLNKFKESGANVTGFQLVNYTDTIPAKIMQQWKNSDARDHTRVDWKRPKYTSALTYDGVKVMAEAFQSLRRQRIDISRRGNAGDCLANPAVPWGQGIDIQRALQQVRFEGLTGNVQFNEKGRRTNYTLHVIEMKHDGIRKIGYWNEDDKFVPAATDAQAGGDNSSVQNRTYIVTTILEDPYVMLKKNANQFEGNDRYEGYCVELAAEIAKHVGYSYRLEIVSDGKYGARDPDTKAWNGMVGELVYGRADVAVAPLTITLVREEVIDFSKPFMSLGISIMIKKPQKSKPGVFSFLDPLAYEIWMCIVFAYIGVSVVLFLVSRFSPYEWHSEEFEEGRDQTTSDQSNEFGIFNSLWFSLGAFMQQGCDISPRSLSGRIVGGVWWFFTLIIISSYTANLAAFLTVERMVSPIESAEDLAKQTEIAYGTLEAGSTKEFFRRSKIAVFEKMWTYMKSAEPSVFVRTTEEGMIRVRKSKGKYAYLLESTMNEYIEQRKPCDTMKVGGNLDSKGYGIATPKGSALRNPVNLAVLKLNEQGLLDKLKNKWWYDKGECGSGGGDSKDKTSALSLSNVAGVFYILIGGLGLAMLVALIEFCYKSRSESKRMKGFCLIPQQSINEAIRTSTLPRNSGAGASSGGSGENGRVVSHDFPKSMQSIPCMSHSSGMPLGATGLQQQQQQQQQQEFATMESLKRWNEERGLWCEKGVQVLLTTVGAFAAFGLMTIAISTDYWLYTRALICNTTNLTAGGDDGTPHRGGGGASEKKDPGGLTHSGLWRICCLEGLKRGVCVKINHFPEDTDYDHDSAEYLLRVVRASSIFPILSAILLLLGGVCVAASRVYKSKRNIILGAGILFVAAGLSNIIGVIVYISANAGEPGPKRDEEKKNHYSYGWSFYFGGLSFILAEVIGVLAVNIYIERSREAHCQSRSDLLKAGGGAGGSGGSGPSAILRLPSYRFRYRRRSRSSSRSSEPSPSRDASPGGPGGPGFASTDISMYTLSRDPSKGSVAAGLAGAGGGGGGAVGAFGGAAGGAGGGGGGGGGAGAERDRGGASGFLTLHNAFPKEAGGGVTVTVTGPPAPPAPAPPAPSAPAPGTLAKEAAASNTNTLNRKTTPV
In the case of `FC(F)(F)c1ccc2nc(C3CCC3)n(-c3cc(Br)c4[nH]ncc4c3)c2n1` [Example 138, 3-(7-Bromo-1H-indazol-5-yl)-2-cyclobutyl-5-(trifluoromethyl)imidazo[4,5-b]pyridine], the IC50 was 0.02 nM.
The figure for `Cc1ccc2nc(C(C)C)n(-c3ccc4[nH]ncc4c3)c2n1` [Example 148, 3-(1H-Indazol-5-yl)-2-isopropyl-5-methyl-imidazo[4,5-b]pyridine] is 7.94 nM.
The value for `Cc1ccc2cc(-c3ccccc3)n(-c3cnc4[nH]ccc4c3)c2n1` [Example 390, 6-Methyl-2-phenyl-1-(1H-pyrrolo[2,3-b]pyridin-5-yl)pyrrolo[2,3-b]pyridine] was 1.26 nM; that for `FC(F)(F)c1nc2ccc(C3CC3)nc2n1-c1ccc2[nH]ncc2c1` [Example 125, 5-Cyclopropyl-3-(1H-indazol-5-yl)-2-(trifluoromethyl)imidazo[4,5-b]pyridine] was 0.794 nM; that for `Cc1cc(-n2cc(C(F)F)c3ccc(C(F)(F)F)nc32)cc2cn[nH]c12` [Example 340, 3-(Difluoromethyl)-1-(7-methyl-1H-indazol-5-yl)-6-(trifluoromethyl)pyrrolo[2,3-b]pyridine] was 12.6 nM.
`O=C1Cc2cc(-n3c(C(F)(F)F)nc4ccc(C(F)F)nc43)ccc2N1` [Example 153, 5-[5-(Difluoromethyl)-2-(trifluoromethyl)imidazo[4,5-b]pyridin-3-yl]indolin-2-one]: the IC50 is 2.51 nM.
The value for `CC(C)(C)Oc1ccc2cc(-c3ccc(F)cc3)n(-c3ccc4[nH]ccc4c3)c2n1` [Example 386, 6-tert-Butoxy-2-(4-fluorophenyl)-1-(1H-indol-5-yl)pyrrolo[2,3-b]pyridine] was 1580 nM; that for `CCc1nc2ccc(C(F)(F)F)nc2n1-c1ccc2c(c1)CC(=O)N2` [Example 99, 5-[2-Ethyl-5-(trifluoromethyl)imidazo[4,5-b]pyridin-3-yl]indolin-2-one] was 12.6 nM; that for `O=C1Cc2cc(-n3c(CCC(F)(F)F)nc4ccc(C(F)(F)F)nc43)ccc2N1` [Example 53, 5-[5-(Trifluoromethyl)-2-(3,3,3-trifluoropropyl)imidazo[4,5-b]pyridin-3-yl]indolin-2-one] was 79.4 nM.
The figure for `O=c1[nH]c2ccc(-n3c(-c4ccc(F)cc4)nc4ccc(CO)nc43)cc2s1` [Example 71, 6-(2-(4-Fluorophenyl)-5-(hydroxymethyl)-3H-imidazo[4,5-b]pyridin-3-yl)benzo[d]thiazol-2(3H)-one] is 39.8 nM; for `FC(F)(F)c1ccc2nc(C3CCC3)n(-c3ccc4[nH]ncc4c3)c2n1` [Example 103, 2-Cyclobutyl-3-(1H-indazol-5-yl)-5-(trifluoromethyl)imidazo[4,5-b]pyridine] it is 1.58 nM.
Regarding `Cc1ccc2nc(C(F)(F)F)n(-c3ccc4[nH]c(=O)sc4c3)c2n1` [Example 142, 6-[5-Methyl-2-(trifluoromethyl)imidazo[4,5-b]pyridin-3-yl]-3H-1,3-benzothiazol-2-one], the IC50 is 1.58 nM.
Regarding `Cc1ccc2nc(C3CCC3)n(-c3ccc4[nH]ncc4c3)c2n1` [Example 149, 2-Cyclobutyl-3-(1H-indazol-5-yl)-5-methyl-imidazo[4,5-b]pyridine], the IC50 is 0.794 nM.
`CC(C)c1cc2ccc(C(F)(F)F)nc2n1-c1cc(F)c2c(c1)CC(=O)N2` [Example 369, 7-Fluoro-5-[2-isopropyl-6-(trifluoromethyl)pyrrolo[2,3-b]pyridin-1-yl]indolin-2-one]: the IC50 is 0.00794 nM.
As for `Oc1ccc2nc(-c3ccccc3)n(-c3ccc4[nH]ncc4c3)c2n1` [Example 156, 3-(1H-Indazol-5-yl)-2-phenyl-imidazo[4,5-b]pyridin-5-ol], the IC50 was 25.1 nM.
The value for `O=C1Cc2cc(-n3c(C4CCOC4)nc4ccc(C(F)(F)F)nc43)ccc2N1` (racemic) [Example 52, (racemic)-5-[2-Tetrahydrofuran-3-yl-5-(trifluoromethyl)imidazo[4,5-b]pyridin-3-yl]indolin-2-one] was 20 nM.
The value for `CC[C@@H](C)c1nc2ccc(C(F)(F)F)nc2n1-c1cc(C)c2[nH]ncc2c1` (single isomer, unassigned) [Example 406, (*R)-2-(sec-Butyl)-3-(7-methyl-1H-indazol-5-yl)-5-(trifluoromethyl)-3H-imidazo[4,5-b]pyridine] was 0.126 nM.
On to `CCc1nc2ccc(C)nc2n1-c1ccc2c(c1)CC(=O)N2` [Example 75, 5-(2-Ethyl-5-methyl-imidazo[4,5-b]pyridin-3-yl)indolin-2-one], for which the IC50 is 251 nM.
The value for `Cc1ccc2nc(-c3ccc(F)cc3)n(-c3ccc4[nH]c(=O)sc4c3)c2n1` [Example 27, 6-[2-(4-Fluorophenyl)-5-methyl-imidazo[4,5-b]pyridin-3-yl]-3H-1,3-benzothiazol-2-one] was 0.794 nM; that for `O=C1Cc2cc(-n3c(-c4ccc(F)cc4)nc4cccnc43)ccc2N1` [Example 23, 5-[2-(4-Fluorophenyl)imidazo[4,5-b]pyridin-3-yl]indolin-2-one] was 25.1 nM; that for `C[C@H](F)c1nc2ccc(C(F)(F)F)nc2n1-c1cc(Cl)c2[nH]ncc2c1` (single isomer, unassigned) [Example 409, (*S)-3-(7-Chloro-1H-indazol-5-yl)-2-(1-fluoroethyl)-5-(trifluoromethyl)-3H-imidazo[4,5-b]pyridine] was 0.0794 nM.
The figure for `O=c1[nH]c2ccc(-n3c(C(F)(F)C(F)(F)F)nc4ccc(C(F)(F)F)nc43)cc2s1` [Example 233, 6-[2-(1,1,2,2,2-Pentafluoroethyl)-5-(trifluoromethyl)imidazo[4,5-b]pyridin-3-yl]-3H-1,3-benzothiazol-2-one] is 0.316 nM.
The figure for `COc1ccc2nc(C(F)(F)F)n(-c3cc(Cl)c4[nH]ncc4c3)c2n1` [Example 415, 3-(7-Chloro-1H-indazol-5-yl)-5-methoxy-2-(trifluoromethyl)-3H-imidazo[4,5-b]pyridine] is 0.0501 nM; for `CCCc1cc(-n2c(C(F)(F)F)nc3ccc(C(F)(F)F)nc32)cc2cn[nH]c12` [Example 221, 3-(7-Propyl-1H-indazol-5-yl)-2,5-bis(trifluoromethyl)-3H-imidazo[4,5-b]pyridine] it is 0.126 nM.
On to `Fc1cnc2c(c1)nc(C(F)(F)F)n2-c1cc(Cl)c2[nH]ncc2c1` [Example 279, 3-(7-Chloro-1H-indazol-5-yl)-6-fluoro-2-(trifluoromethyl)imidazo[4,5-b]pyridine], for which the IC50 is 1.26 nM.
As to `O=C(c1nc2ccc(C(F)(F)F)nc2n1-c1ccc2[nH]ncc2c1)N1CCC1` [Example 81, Azetidin-1-yl-[3-(1H-indazol-5-yl)-5-(trifluoromethyl)imidazo[4,5-b]pyridin-2-yl]methanone], the IC50 was 501 nM.
The value for `Cc1cc(Cl)nc2c1nc(C1CCC1)n2-c1ccc2[nH]ncc2c1` [Example 137, 5-Chloro-2-cyclobutyl-3-(1H-indazol-5-yl)-7-methyl-imidazo[4,5-b]pyridine] was 0.501 nM.
The figure for `Fc1ccc(-c2cc3ccc(Cl)nc3n2-c2ccc3[nH]ccc3c2)cc1` [Example 385, 6-Chloro-2-(4-fluorophenyl)-1-(1H-indol-5-yl)pyrrolo[2,3-b]pyridine] is 15.8 nM.

(Values after patent US11312712B2, “Azabenzimidazoles and their use as AMPA receptor modulators” (Janssen Pharmaceutica NV, priority 2015, dated 2022).)
